# Results taken from patent publication US20240391870A1 (Arcturus Therapeutics, Inc., priority 2023, published 2024).
# Columns and labels:
# [1] = Lipid nanoparticle size, PDI and encapsulation; assay type: physicochemical; conditions: Table 3
# [2] = In vivo biodegradability assay (lipid in liver); conditions: Table 3; liver tissue, 0.3 mg/kg dose
# Protocol: In vivo biodegradability assay was performed to assess the biodegradability of lipids in the LNP. Briefly, mice were injected with either 0.1 or 0.03 mg/Kg dose and after 24 or 48 hours mice livers were collected. To measure the concentration of lipids in the mouse liver, liver samples were homogenized in appropriate buffer in 1-10 dilution and mixed with the same amount of stabilized plasma. The samples were then mixed with organic solvents spiked with internal standard to precipitate proteins. After centrifugation, supernatant was diluted further with organic solvent before sample analysis by LC-MS. In LC-MS analysis, positive electrospray ionization was used, and multiple reaction monitoring (MRM) parameters were set up to specifically target the lipid analyte and internal standard. Calibration standards were prepared in stabilized plasma and mixed with same amount of homogenization buffer before protein precipitation. Quality control samples with known amounts of lipid was prepared in blank liver homogenate to monitor the precision and accuracy of the assay.
# factor VII = assay: Factor VII knock down evaluation (LNP with FVII siRNA); assay type: in vivo, Balb/C mice; conditions: Table 3; 0.03 mg/kg
# Method in brief: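 Female Balb/C mice, 7–8 weeks old, received FVII siRNA lipid nanoparticles intravenously at 0.03 or 0.01 mg/kg. Plasma was collected 48 h later and FVII protein measured by chromogenic assay at 405 nm against a control plasma calibration curve. Levels are relative to saline-treated controls.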
# hEPO = hEPO mRNA expression evaluation (hEPO-LNPs); assay type: in vivo, Balb/c mice; conditions: Table 3; 0.3 mg/kg
# [3] = Lipid nanoparticle size, PDI and encapsulation; assay type: physicochemical; conditions: Table 3; for Size (nm): lipid nanoparticle; for EE %: lipid nanoparticle encapsulation
# Protocol: In the context of nucleic acids, full encapsulation may be determined by performing a membrane-impermeable fluorescent dye exclusion assay, which uses a dye that has enhanced fluorescence when associated with nucleic acid. Encapsulation is determined by adding the dye to a lipid formulation, measuring the resulting fluorescence, and comparing it to the fluorescence observed upon addition of a small amount of nonionic detergent. Detergent-mediated disruption of the lipid layer releases the encapsulated nucleic acid, allowing it to interact with the membrane-impermeable dye. Nucleic acid encapsulation may be calculated as E=(I0−I)/I0, where I and I0 refer to the fluorescence intensities before and after the addition of detergent.
# [4] = Measured pKa in the indicated formulation
# Protocol: Measured pKa values were determined based on the pH measured in the indicated formulation (i.e., EPO or FVII formulation).
SMILES,PDI [1],Invivo lipid degradability ng/g of Liver tissue @ 0.3 mg/kg dose [2],FVII KD % @ 0.03 mg/kg (factor VII),EPO expression in ng/mL @ 0.3 mg/kg (hEPO),Size (nm) [3],EE % [3],pKa [4]
"CC1CCC(CCC(=O)OCC(C)(COC(=O)CCC2CCC(C)CC2)COC(=O)CCC(CCC(=O)OCC(C)(COC(=O)CCC2CCC(C)CC2)COC(=O)CCC2CCC(C)CC2)OC(=O)CCCN(C)C)CC1 (stereo not shown) [Lipid 51, Bis(2-methyl-3-((3-(4-methylcyclohexyl)propanoyl)oxy)-2-(((3-(4-methylcyclohexyl)propanoyl)oxy)methyl)propyl) 4-((4-(dimethylamino)butanoyl)oxy)heptanedioate]",0.059,36000 ng/g,65.23%,868.5 ng/mL,65.71 nm,90.4%,6.53
"CN(C)CCCC(=O)OC(CCCCCC(=O)OC(COC(=O)CCC1CCCCC1)COC(=O)CCC1CCCCC1)CCCCCC(=O)OC(COC(=O)CCC1CCCCC1)COC(=O)CCC1CCCCC1 [Lipid 59, bis(1,3-bis((3-cyclohexylpropanoyl)oxy)propan-2-yl) 7-((4-(dimethylamino)butanoyl)oxy)tridecanedioate]",0.068,BLOQ,–,14723.72 ng/mL,74.77 nm,92.1%,6.37
"CN(C)CCCC(=O)OC(CCCC(=O)OCC(C)(COC(=O)CCC1CCCCC1)COC(=O)CCC1CCCCC1)CCCC(=O)OCC(C)(COC(=O)CCC1CCCCC1)COC(=O)CCC1CCCCC1 [Lipid 62, bis(3-((3-cyclohexylpropanoyl)oxy)-2-(((3-cyclohexylpropanoyl)oxy)methyl)-2-methylpropyl) 5-((4-(dimethylamino)butanoyl)oxy)nonanedioate]",0.056,6880 ng/g,–,2930.66 ng/mL,72.43 nm,95.3%,6.64
CN(C)CCCSC(=O)N(CCCC(=O)OCC(COC(=O)CCC1CCCCC1)COC(=O)CCC1CCCCC1)CCCC(=O)OCC(COC(=O)CCC1CCCCC1)COC(=O)CCC1CCCCC1 [Lipid 52],0.038,BLOQ,69.66%,17888.62 ng/mL,77.62 nm,90.8%,7.2
"CN(C)CCCC(=O)OC(CCCC(=O)OC(COC(=O)CCC1CCCCC1)COC(=O)CCC1CCCCC1)CCCC(=O)OC(COC(=O)CCC1CCCCC1)COC(=O)CCC1CCCCC1 [Lipid 57, bis(1,3-bis((3-cyclohexylpropanoyl)oxy)propan-2-yl) 5-((4-(dimethylamino)butanoyl)oxy)nonanedioate]",0.065,BLOQ,–,21737.69 ng/mL,78.98 nm,94.3%,6.52
CCCCCC(C)(C)C(=O)OCC(C)(COC(=O)CCCN(CCCC(=O)OCC(C)(COC(=O)C(C)(C)CCCCC)COC(=O)C(C)(C)CCCCC)C(=O)SCCCN(C)C)COC(=O)C(C)(C)CCCCC [Lipid 56],0.081,81900 ng/g,46.3%,5463.76 ng/mL,67.34 nm,91.5%,6.55
"CC1CCC(CCC(=O)OCC(C)(COC(=O)CCC2CCC(C)CC2)COC(=O)CCN(CCC(=O)OCC(C)(COC(=O)CCC2CCC(C)CC2)COC(=O)CCC2CCC(C)CC2)C(=O)CCCCN(C)C)CC1 (stereo not shown) [Lipid 49, (((3,3′-((5-(dimethylamino)pentanoyl)azanediyl)bis (propanoyl))bis(oxy))bis(methylene))bis(2-methylpropane-2,1,3-triyl)tetrakis(3-(4-methylcyclohexyl)propanoate)]",0.028,–,3.57%,–,97.23 nm,98.9%,7.5
CCCCCCCC(=O)OCC(C)(COC(=O)CCCCCCC)COC(=O)CCCN(CCCC(=O)OCC(C)(COC(=O)CCCCCCC)COC(=O)CCCCCCC)C(=O)SCCCN(C)C [Lipid 54],0.072,BLOQ,86.88%,25548.45 ng/mL,76.03 nm,90.9%,7.3
CC1CCC(CCC(=O)OCC(C)(COC(=O)CCC2CCC(C)CC2)COC(=O)CCN(CCC(=O)OCC(C)(COC(=O)CCC2CCC(C)CC2)COC(=O)CCC2CCC(C)CC2)C(=O)OCCCN(C)C)CC1 (stereo not shown) [Lipid 46],0.114,–,82.9%,958.2 ng/mL,81.62 nm,91.5%,7.08
"CCCCC(C)(C)CC(=O)OCC(C)(COC(=O)CCC(CCC(=O)OCC(C)(COC(=O)CC(C)(C)CCCC)COC(=O)CC(C)(C)CCCC)OC(=O)CCCN(C)C)COC(=O)CC(C)(C)CCCC [Lipid 60, bis(3-((3,3-dimethylheptanol)oxy)-2-(((3,3-dimethylheptanol)oxy)methyl)-2-methylpropyl) 4-((4-(dimethylamino)butanoyl)oxy)heptanedioate]",0.087,53300 ng/g,–,1631.03 ng/mL,65.95 nm,93.9%,6.28
"CC1CCC(CCC(=O)OCC(C)(COC(=O)CCC2CCC(C)CC2)COC(=O)CCN(CCC(=O)OCC(C)(COC(=O)CCC2CCC(C)CC2)COC(=O)CCC2CCC(C)CC2)C(=O)N(C)CCCN(C)C)CC1 (stereo not shown) [Lipid 48, (((3,3′-((((3-dimethylamino)propyl)methylcarbamoyl)azanediyl)bis(propanoyl))bis(oxy))bis(methylene))bis(2-methylpropane-2,1,3-triyl)tetrakis(3-(4-methylcyclohexyl)propanoate)]",0.065,–,–,–,103.2 nm,96.2%,7.18
"CN(C)CCCC(=O)OC(CCCC(=O)OCC(COC(=O)CCC1CCCCC1)COC(=O)CCC1CCCCC1)CCCC(=O)OCC(COC(=O)CCC1CCCCC1)COC(=O)CCC1CCCCC1 [Lipid 61, bis(3-((3-cyclohexylpropanoyl)oxy)-2-(((3-cyclohexylpropanoyl)oxy)methyl)propyl)5-((4-(dimethylamino)butanoyl)oxy)nonanedioate]",0.064,BLOQ,–,4238.52 ng/mL,70.54 nm,95.3%,6.84
CN(C)CCCC(=O)OC(CCCC(=O)OC(COC(=O)CCCC1CCCCC1)COC(=O)CCCC1CCCCC1)CCCC(=O)OC(COC(=O)CCCC1CCCCC1)COC(=O)CCCC1CCCCC1,0.081,BLOQ,–,19337.84 ng/mL,70.09 nm,93.4%,6.49
